Assay results as given in US6727232B2, “Nucleoside peptide antibiotics of AA-896” (Wyeth Holdings Corporation, priority 2001, dated 2004).
≈ marks a conversion by molar mass, not a printed value. Read-outs that look alike come from different tables or passages of the source.

Tests used:
Test in all cases: Broth dilution MIC
Type in all cases: cell-based
[1] = test system: S. aureus GC 2216; details: Staphylococcus aureus, read-out: Antimicrobial Activity (MIC)
Procedure, shortened: (§1)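 Broth dilution in Mueller-Hinton medium with 18 h incubation at 35° C.; the minimal concentration that stops growth of each strain is the MIC.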

[2] = test system: E. coli GC 4560; details: Escherichia coli, GC4560, 18 h, read-out: Antimicrobial Activity (MIC)
Procedure, shortened: as §1

[3] = test system: CNS GC 4538; details: read-out: Antimicrobial Activity (MIC)
Procedure, shortened: as §1

[4] = test system: M. morganii GC 4531; details: Morganella morganii, read-out: Antimicrobial Activity (MIC)
Procedure, shortened: as §1

[5] = test system: P. aeruginosa GC 4532; details: Pseudomonas aeruginosa, read-out: Antimicrobial Activity (MIC)
Procedure, shortened: as §1

[6] = test system: S. aureus GC 1131; details: Staphylococcus aureus, read-out: Antimicrobial Activity (MIC)
Procedure, shortened: as §1

[7] = test system: E. coli GC 3226; details: Escherichia coli, read-out: Antimicrobial Activity (MIC)
Procedure, shortened: as §1

[8] = test system: E. cloacae GC 3783; details: Enterobacter cloacae, read-out: Antimicrobial Activity (MIC)
Procedure, shortened: as §1

[9] = test system: E. faecalis GC 4555; details: Enterococcus faecalis, read-out: Antimicrobial Activity (MIC)
Procedure, shortened: as §1

[10] = test system: K. pneumoniae GC 4534; details: Klebsiella pneumoniae, read-out: Antimicrobial Activity (MIC)
Procedure, shortened: as §1

[11] = test system: S. aureus GC 4536; details: Staphylococcus aureus, read-out: Antimicrobial Activity (MIC)
Procedure, shortened: as §1

[12] = test system: P. aeruginosa GC 2214; details: Pseudomonas aeruginosa, read-out: Antimicrobial Activity (MIC)
Procedure, shortened: as §1

[13] = test system: E. faecalis GC 2242; details: Enterococcus faecalis, read-out: Antimicrobial Activity (MIC)
Procedure, shortened: as §1

[14] = test system: S. marcescens GC 4077; details: Serratia marcescens, read-out: Antimicrobial Activity (MIC)
Procedure, shortened: as §1

[15] = test system: E. faecalis GC 842; details: Enterococcus faecalis, read-out: Antimicrobial Activity (MIC)
Procedure, shortened: as §1

[16] = test system: E. coli GC 2203; details: Escherichia coli, read-out: Antimicrobial Activity (MIC)
Procedure, shortened: as §1

[17] = test system: CNS GC 4547; details: read-out: Antimicrobial Activity (MIC)
Procedure, shortened: as §1

[18] = test system: E. coli GC 4559; details: Escherichia coli, read-out: Antimicrobial Activity (MIC)
Procedure, shortened: as §1

[19] = test system: CNS GC 4537; details: read-out: Antimicrobial Activity (MIC)
Procedure, shortened: as §1

[20] = test system: P. rettgeri GC 4530; details: Providencia rettgeri, read-out: Antimicrobial Activity (MIC)
Procedure, shortened: as §1

[21] = GC2216, S. aureus GC 2216, Mueller-Hinton broth, 18 hours at 35° C.
[22] = CNS GC 4538, Mueller-Hinton broth, 18 hours at 35° C.
[23] = GC4531, M. morganii GC 4531, Mueller-Hinton broth, 18 hours at 35° C.
[24] = GC4532, P. aeruginosa GC 4532, Mueller-Hinton broth, 18 hours at 35° C.
[25] = GC1131, S. aureus GC 1131, Mueller-Hinton broth, 18 hours at 35° C.
[26] = GC3226, E. coli GC 3226, Mueller-Hinton broth, 18 hours at 35° C.
[27] = GC3783, E. cloacae GC 3783, Mueller-Hinton broth, 18 hours at 35° C.
[28] = GC4555, E. faecalis GC 4555, Mueller-Hinton broth, 18 hours at 35° C.
[29] = GC4534, K. pneumoniae GC 4534, Mueller-Hinton broth, 18 hours at 35° C.
[30] = GC4536, S. aureus GC 4536, Mueller-Hinton broth, 18 hours at 35° C.
[31] = GC2214, P. aeruginosa GC 2214, Mueller-Hinton broth, 18 hours at 35° C.
[32] = GC2242, E. faecalis GC 2242, Mueller-Hinton broth, 18 hours at 35° C.
[33] = GC4077, S. marcescens GC 4077, Mueller-Hinton broth, 18 hours at 35° C.
[34] = GC842, E. faecalis GC 842, Mueller-Hinton broth, 18 hours at 35° C.
[35] = GC2203, E. coli GC 2203, Mueller-Hinton broth, 18 hours at 35° C.
[36] = CNS GC 4547, Mueller-Hinton broth, 18 hours at 35° C.
[37] = GC4559, E. coli GC 4559, Mueller-Hinton broth, 18 hours at 35° C.
[38] = CNS GC 4537, Mueller-Hinton broth, 18 hours at 35° C.
[39] = GC4530, P. rettgeri GC 4530, Mueller-Hinton broth, 18 hours at 35° C.

## CCCCCCCCCCCCCCCCNC(=O)NC[C@H]1OC(O[C@H](C(NCCCNC(=O)C(NC(=O)C(NC(=O)NC(C(=O)O)C(C)C)C2CCNC(=N)N2)C(O)C(C)C)C(=O)O)[C@H]2O[C@@H](n3ccc(=O)[nH]c3=O)[C@H](O)[C@@H]2O)[C@H](OC)[C@H]1O (stereo partly drawn) [Example 16, 16-((R)-{(2S,3S,4R,5R)-5-[2,4-Dioxo-3,4-dihydro-1 (2H)-pyrimidinyl]-3,4-dihydroxytetrahydro-2-furanyl}{[(3R,4S,5R)-5-({[(hexadecylamino)carbonyl]amino}methyl)-4-hydroxy-3-methoxytetrahydro-2-furanyl]oxy}methyl)-9-(1-hydroxy-2-methylpropyl)-6-(2-iminohexahydro-4-pyrimidinyl)-2-isopropyl-4,7,10-trioxo-3,5,8,11,15-pentaazaheptadecane-1,17-dioic Acid]
[1]; [21]
  MIC: > 32 µg/mL
[2]
  MIC: > 32 µg/mL
[3]; [22]
  MIC: > 32 µg/mL
[4]; [23]
  MIC: > 32 µg/mL
[5]; [24]
  MIC: > 32 µg/mL
[6]; [25]
  MIC: > 32 µg/mL
[7]; [26]
  MIC: > 32 µg/mL
[8]; [27]
  MIC: > 32 µg/mL
[9]; [28]
  MIC: > 32 µg/mL
[10]; [29]
  MIC: > 32 µg/mL
[11]; [30]
  MIC: > 32 µg/mL
[12]; [31]
  MIC: > 32 µg/mL
[13]; [32]
  MIC: > 32 µg/mL
[14]; [33]
  MIC: > 32 µg/mL
[15]; [34]
  MIC: > 32 µg/mL
[16]; [35]
  MIC: > 32 µg/mL
[17]; [36]
  MIC: > 32 µg/mL
[18]; [37]
  MIC: > 32 µg/mL
[19]; [38]
  MIC: > 32 µg/mL
[20]; [39]
  MIC: > 32 µg/mL

## CO[C@H]1C(O[C@H](C2C(=O)N(c3ccc(F)cc3)C(=O)N2CCCNC(=O)C(NC(=O)C(NC(=O)NC(C(=O)O)C(C)C)C2CCNC(=N)N2)C(O)C(C)C)[C@H]2O[C@@H](n3ccc(=O)[nH]c3=O)[C@H](O)[C@@H]2O)O[C@H](CN)[C@@H]1O (stereo partly drawn) [Example 1, 14-[5-((R)-{[(3R,4S,5R)-5-(Aminomethyl)-4-hydroxy-3-methoxytetrahydro-2-furanyl]oxy}{(2S,3S,4R,5R)-5-[2,4-dioxo-3,4-dihydro-1 (2H)-pyrimidinyl]-3,4-dihydroxytetrahydro-2-furanyl}methyl)-3-(4-fluorophenyl)-2,4-dioxo-1-imidazolidinyl]-9-(1-hydroxy-2-methylpropyl)-6-(2-iminohexahydro-4-pyrimidinyl)-2-isopropyl-4,7,10-trioxo-3,5,8,11-tetraazatetradecan-1-oic acid]
[1]; GC2216, 18 h
  MIC: > 32 µg/mL
[2]
  MIC: 64 µg/mL (≈ 60.1 µM)
[3]; 18 h
  MIC: 32 µg/mL (≈ 30 µM)
[4]; GC4531, 18 h
  MIC: > 32 µg/mL
[5]; GC4532, 18 h
  MIC: > 32 µg/mL
[6]; GC1131, 18 h
  MIC: > 32 µg/mL
[7]; GC3226, 18 h
  MIC: > 32 µg/mL
[8]; GC3783, 18 h
  MIC: > 32 µg/mL
[9]; GC4555, 18 h
  MIC: > 32 µg/mL
[10]; GC4534, 18 h
  MIC: > 32 µg/mL
[11]; GC4536, 18 h
  MIC: > 32 µg/mL
[12]; GC2214, 18 h
  MIC: > 32 µg/mL
[13]; GC2242, 18 h
  MIC: > 32 µg/mL
[14]; GC4077, 18 h
  MIC: > 32 µg/mL
[15]; GC842, 18 h
  MIC: > 32 µg/mL
[16]; GC2203, 18 h
  MIC: > 32 µg/mL
[17]; 18 h
  MIC: > 32 µg/mL
[18]; GC4559, 18 h
  MIC: > 32 µg/mL
[19]; 18 h
  MIC: > 32 µg/mL
[20]; GC4530, 18 h
  MIC: > 32 µg/mL

## CCCCCNC[C@H]1OC(O[C@H](C(NCCCNC(=O)C(NC(=O)C(NC(=O)NC(C(=O)O)C(C)C)C2CCNC(=N)N2)C(O)C(C)C)C(=O)O)[C@H]2O[C@@H](n3ccc(=O)[nH]c3=O)[C@H](O)[C@@H]2O)[C@H](OC)[C@H]1O (stereo partly drawn) [Example 18, 16-[(R)-{(2S,3S,4R,5R)-5-[2,4-Dioxo-3,4-dihydro-1 (2H)-pyrimidinyl]-3,4-dihydroxytetrahydro-2-furanyl}({(3R,4S,5R)-4-hydroxy-3-methoxy-5-[(pentylamino)methyl]tetrahydro-2-furanyl}oxy)methyl]-9-(1-hydroxy-2-methylpropyl)-6-(2-iminohexahydro-4-pyrimidinyl)-2-isopropyl-4,7,10-trioxo-3,5,8,11,15-pentaazaheptadecane-1,17-dioic Acid]
[1]; [21]
  MIC: > 32 µg/mL
[2]
  MIC: > 32 µg/mL
[3]; [22]
  MIC: > 32 µg/mL
[4]; [23]
  MIC: > 32 µg/mL
[5]; [24]
  MIC: > 32 µg/mL
[6]; [25]
  MIC: > 32 µg/mL
[7]; [26]
  MIC: > 32 µg/mL
[8]; [27]
  MIC: > 32 µg/mL
[9]; [28]
  MIC: > 32 µg/mL
[10]; [29]
  MIC: > 32 µg/mL
[11]; [30]
  MIC: > 32 µg/mL
[12]; [31]
  MIC: > 32 µg/mL
[13]; [32]
  MIC: > 32 µg/mL
[14]; [33]
  MIC: > 32 µg/mL
[15]; [34]
  MIC: > 32 µg/mL
[16]; [35]
  MIC: > 32 µg/mL
[17]; [36]
  MIC: > 32 µg/mL
[18]; [37]
  MIC: > 32 µg/mL
[19]; [38]
  MIC: > 32 µg/mL
[20]; [39]
  MIC: > 32 µg/mL
